# Experimental data reported in ChEMBL document CHEMBL5244235, “Diarylpentanoids with antitumor activity: A critical review of structure-activity relationship studies” (Eur J Med Chem, 2020).
# Experiments:
# [1] = Antiproliferative activity against human Panel NCI-58 (58 carcinoma cell lines) assessed as cell growth inhibition; type: functional
# [2] = system: L1210; test: Antiproliferative activity against mouse L1210 cells assessed as inhibition of cell growth; type: functional, cell-based
# [3] = system: B16; test: Antiproliferative activity against mouse B16 cells assessed as cell growth inhibition; type: functional, cell-based
# [4] = system: HCT-116; test: Antiproliferative activity against human HCT-116 cells assessed as cell viability measured after 24 hrs by XTT assay; type: functional, cell-based; conditions: HCT-116, 24 h
# [5] = system: HT-29; test: Antiproliferative activity against human HT-29 cells assessed as cell viability measured after 24 hrs by XTT assay; type: functional, cell-based; conditions: HT-29, 24 h
# [6] = system: NCI-H460; test: Antiproliferative activity against human NCI-H460 cells assessed as cell growth inhibition measured after 24 hrs by MTT assay; type: functional, cell-based; conditions: NCI-H460, 24 h
# [7] = system: A549; test: Antiproliferative activity against human A549 cells assessed as cell growth inhibition measured after 24 hrs by MTT assay; type: functional, cell-based; conditions: A549, 24 h
# [8] = system: Panel prostate (Carcinoma cell lines); test: Antiproliferative activity against human Panel prostate (Carcinoma cell lines) assessed as cell growth inhibition measured after 72 hrs by neutral red assay; type: functional
# [9] = system: Panel ovarian (Carcinoma cell lines); test: Antiproliferative activity against human Panel ovarian (Carcinoma cell lines) assessed as cell growth inhibition measured after 72 hrs by neutral red assay; type: functional
# [10] = system: NSCLC; test: Antiproliferative activity against human NSCLC cells assessed as cell growth inhibition measured after 72 hrs by neutral red assay; type: functional
# [11] = system: Panel colon (Carcinoma cell lines); test: Antiproliferative activity against human Panel colon (Carcinoma cell lines) assessed as cell growth inhibition measured after 72 hrs by neutral red assay; type: functional
# [12] = system: HUVEC; test: Anti-angiogenesis activity in HUVEC cells assessed as cell growth inhibition; type: functional, cell-based; conditions: Homo sapiens
# [13] = system: MDA-MB-231; test: Antiproliferative activity against human MDA-MB-231 cells assessed as cell growth inhibition measured after 72 hrs by neutral red assay; type: functional
# [14] = system: Panel renal (Carcinoma cell lines); test: Antiproliferative activity against human Panel renal (Carcinoma cell lines) assessed as cell growth inhibition measured after 72 hrs by neutral red assay; type: functional
# [15] = Anti-angiogenesis activity in […] MS-1 cells assessed as cell growth inhibition; type: functional, cell-based
# [16] = system: Panel leukemia (Carcinoma cell lines); test: Antiproliferative activity against human Panel leukemia (Carcinoma cell lines) assessed as cell growth inhibition measured after 72 hrs by neutral red assay; type: functional
# [17] = system: SVR; test: Anti-angiogenesis activity in mouse SVR cells assessed as cell growth inhibition; type: functional, cell-based
# [18] = system: Panel breast (Carcinoma cell lines); test: Antiproliferative activity against human Panel breast (Carcinoma cell lines) assessed as cell growth inhibition measured after 72 hrs by neutral red assay; type: functional
# [19] = system: Panel melanoma (Carcinoma cell lines); test: Antiproliferative activity against human Panel melanoma (Carcinoma cell lines) assessed as cell growth inhibition measured after 72 hrs by neutral red assay; type: functional
# [20] = system: Panel CNS (Carcinoma cell lines); test: Antiproliferative activity against human Panel CNS (Carcinoma cell lines) assessed as cell growth inhibition measured after 72 hrs by neutral red assay; type: functional
# [21] = system: RPMI-7951; test: Antiproliferative activity against human RPMI-7951 cells assessed as cell growth inhibition measured after 72 hrs by neutral red assay; type: functional
# [22] = system: L1210; test: Antiproliferative activity against mouse L1210 cells assessed as cell growth inhibition measured after 72 hrs by MTT assay; type: functional, cell-based; conditions: L1210, 72 h
# [23] = system: B16; test: Antiproliferative activity against mouse B16 cells assessed as cell growth inhibition measured after 72 hrs by MTT assay; type: functional, cell-based; conditions: B16, 72 h
# [24] = system: NCI-H460; test: Antiproliferative activity against human NCI-H460 cells assessed as cell growth inhibition measured after 48 hrs by MTT assay; type: functional, cell-based; conditions: NCI-H460, 48 h
# [25] = system: A549; test: Antiproliferative activity against human A549 cells assessed as cell growth inhibition measured after 48 hrs by MTT assay; type: functional, cell-based; conditions: A549, 48 h
# [26] = system: GCIY; test: Antiproliferative activity against human GCIY cells assessed as cell growth inhibition measured after 72 hrs; type: functional, cell-based
# [27] = system: 8505C; test: Antiproliferative activity against human 8505C cells assessed as cell growth inhibition measured after 72 hrs; type: functional, cell-based
# [28] = system: HCT-116; test: Antiproliferative activity against human HCT-116 cells assessed as cell growth inhibition measured after 72 hrs; type: functional, cell-based; conditions: HCT-116, 72 h
# [29] = system: ACHN; test: Antiproliferative activity against human ACHN cells assessed as cell growth inhibition measured after 72 hrs; type: functional, cell-based
# [30] = system: HuCCT-1; test: Antiproliferative activity against human HuCCT-1 cells assessed as cell growth inhibition measured after 72 hrs; type: functional, cell-based; conditions: HuCCT-1, 72 h
# [31] = system: A549; test: Antiproliferative activity against human A549 cells assessed as cell growth inhibition measured after 72 hrs; type: functional, cell-based; conditions: A549, 72 h
# [32] = system: Huh-7; test: Antiproliferative activity against human Huh-7 cells assessed as cell growth inhibition measured after 72 hrs; type: functional, cell-based; conditions: Huh-7, 72 h
# [33] = Antiproliferative activity against human SH-10-TC cells assessed as cell growth inhibition measured after 72 hrs; type: functional, cell-based
# [34] = system: A-431; test: Antiproliferative activity against human A-431 cells assessed as cell growth inhibition measured after 72 hrs; type: functional, cell-based; conditions: A-431, 72 h
# [35] = system: DLD-1; test: Antiproliferative activity against human DLD-1 cells assessed as cell growth inhibition measured after 96 hrs; type: functional, cell-based; conditions: DLD-1, 96 h
# [36] = Antiproliferative activity against human PK-1 cells assessed as cell growth inhibition measured after 72 hrs; type: functional, cell-based; conditions: PK-1, 72 h
# [37] = system: MCF7; test: Antiproliferative activity against human MCF7 cells assessed as cell growth inhibition measured after 72 hrs; type: functional, cell-based; conditions: MCF7, 72 h
# [38] = system: DLD-1; test: Antiproliferative activity against human DLD-1 cells assessed as cell growth inhibition measured after 72 hrs; type: functional, cell-based; conditions: DLD-1, 72 h
# [39] = Antiproliferative activity against human OVK18 cells assessed as cell growth inhibition measured after 72 hrs; type: functional, cell-based; conditions: OVK18, 72 h
# [40] = system: G-361; test: Antiproliferative activity against human G-361 cells assessed as cell growth inhibition measured after 72 hrs; type: functional, cell-based; conditions: G-361, 72 h
# [41] = system: PC-3; test: Antiproliferative activity against human PC-3 cells assessed as cell growth inhibition measured after 72 hrs; type: functional, cell-based; conditions: PC-3, 72 h
# [42] = system: U-937; test: Antiproliferative activity against human U-937 cells assessed as cell viability by WST-1 assay; type: functional, cell-based
# [43] = system: HCT-116; test: Antiproliferative activity against human HCT-116 cells assessed as cell viability by WST-1 assay; type: functional, cell-based
# [44] = system: SAOS-2; test: Antiproliferative activity against human SAOS-2 cells assessed as cell viability by WST-1 assay; type: functional, cell-based
# [45] = system: Jurkat E6.1; test: Antiproliferative activity against human Jurkat E6.1 cells assessed as cell viability by WST-1 assay; type: functional, cell-based
# [46] = Cytotoxicity activity against mouse SVR cells assessed as cell growth inhibition at 3 ug/ml relative to control; type: toxicity, cell-based; conditions: at 3 µg/mL
# [47] = Cytotoxicity activity against mouse SVR cells assessed as cell growth inhibition at 6 ug/ml relative to control; type: toxicity, cell-based; conditions: at 6 µg/mL
# [48] = Antiproliferative activity against human SH-10-TC cells assessed as cell growth inhibition by MTT assay; type: functional, cell-based
# [49] = system: HUVEC; test: Anti-angiogenesis activity in HUVEC cells; type: functional, cell-based; conditions: Homo sapiens
# [50] = system: GCIY; test: Antiproliferative activity against human GCIY cells assessed as cell growth inhibition by MTT assay; type: functional, cell-based
# [51] = system: HeLa; test: Antiproliferative activity against human HeLa cells assessed as cell growth inhibition measured after 72 hrs by MTT assay; type: functional, cell-based; conditions: Homo sapiens, HeLa, 72 h
# [52] = system: LS174T; test: Antiproliferative activity against human LS174T cells assessed as cell growth inhibition by MTT assay; type: functional, cell-based
# [53] = Antiproliferative activity against human KATO III stomach cancer cell line assessed as cell growth inhibition by MTT assay; type: functional, cell-based
# [54] = system: Ca-Ski; test: Antiproliferative activity against human Ca-Ski cells assessed as cell growth inhibition measured after 72 hrs by MTT assay; type: functional, cell-based
# [55] = Antiproliferative activity against human H-111-TC cells assessed as cell growth inhibition by MTT assay; type: functional, cell-based
# [56] = Cytotoxicity against mouse SVR cells assessed as cell growth inhibition by anti-angiogenisis screening assay; type: toxicity, cell-based
# [57] = Cytotoxicity against HUVEC cells assessed as cell growth inhibition by anti-angiogenisis screening assay; type: toxicity, cell-based; conditions: human
# [58] = system: MDA-MB-231; test: Growth inhibition of human MDA-MB-231 cells measured after 72 hrs by microplate reader analysis; type: functional
# [59] = system: A549; test: Anticancer activity against human A549 cells assessed as cell growth inhibition; type: functional
# [60] = Cytotoxicity against mouse MS-1 cells assessed as cell growth inhibition by anti-angiogenisis screening assay; type: toxicity, cell-based
# [61] = system: NCI-H460; test: Anticancer activity against human NCI-H460 cells assessed as cell growth inhibition; type: functional
# [62] = system: RPMI-7951; test: Growth inhibition of human RPMI-7951 cells measured after 72 hrs by microplate reader analysis; type: functional, cell-based; conditions: RPMI-7951, time 72 hrs
# [63] = system: A2780; test: Antiproliferative activity against human A2780 cells assessed as cell viability at 10 uM measured after 24 hrs by MTT assay relative to control; type: functional; conditions: read-out: Activity
smiles,measurement,setting,value
CCOc1cc(/C=C2\CN(C)C/C(=C\c3ccc(O)c(OCC)c3)C2=O)ccc1O,GI50,[1],1400 nM
O=C1/C(=C/c2cccc(O)c2)CNC/C1=C\c1cccc(O)c1,IC50,[2],300 nM
same,IC50,[3],200 nM
CN1C/C(=C\c2ccccn2)C(=O)/C(=C/c2ccccn2)C1,IC50,[4],620 nM
same,IC50,[5],620 nM
COc1cc(/C=C/C(=O)CC(=O)/C=C/c2ccc(O)c(OC)c2)ccc1O [CURCUMIN],IC50,[6],5300 nM
same,IC50,[7],32500 nM
O=C1/C(=C/c2ccccc2O)CCC/C1=C\c1ccccc1O,GI50,[8],1600 nM
same,GI50,[9],1600 nM
same,GI50,[10],1600 nM
same,GI50,[11],1600 nM
same,GI50,[12],2000 nM
same,GI50,[13],1600 nM
same,GI50,[14],1600 nM
same,GI50,[15],2000 nM
same,GI50,[16],1600 nM
same,GI50,[17],2000 nM
same,GI50,[18],1600 nM
same,GI50,[19],1600 nM
same,GI50,[20],1600 nM
same,GI50,[21],1600 nM
COc1cc(/C=C2\CNC/C(=C\c3cc(OC)cc(OC)c3OC)C2=O)c(OC)c(OC)c1,IC50,[2],300 nM
same,IC50,[3],200 nM
COc1cc(/C=C2\CC(c3ccccc3)C/C(=C\c3cc(OC)c(OC)c(OC)c3)C2=O)cc(OC)c1OC (centres undefined),IC50,[22],120 nM
same,IC50,[23],510 nM
CCN1C/C(=C\c2ccc(OC)c(OC)c2OC)C(=O)/C(=C/c2ccc(OC)c(OC)c2OC)C1,IC50,[6],2300 nM
same,IC50,[7],5300 nM
O=C1/C(=C/c2ccccc2F)CCC/C1=C\c1ccccc1F,IC50,[24],28700 nM
same,IC50,[25],30500 nM
C=C1CC2CC(C1)/C(=C\c1ccc(OC)c(OC)c1)C(=O)/C2=C/c1ccc(OC)c(OC)c1,IC50,[26],> 50000 nM
same,IC50,[27],> 50000 nM
same,IC50,[28],> 50000 nM
same,IC50,[29],> 50000 nM
same,IC50,[30],> 50000 nM
same,IC50,[31],> 50000 nM
same,IC50,[32],> 50000 nM
same,IC50,[33],> 50000 nM
same,IC50,[34],> 50000 nM
same,IC50,[35],8000 nM
same,IC50,[36],> 50000 nM
same,IC50,[37],> 50000 nM
same,IC50,[38],> 50000 nM
same,IC50,[39],> 50000 nM
same,IC50,[40],> 50000 nM
same,IC50,[41],> 50000 nM
O=C1/C(=C/c2ccc([N+](=O)[O-])cc2)CC(c2ccccc2)C/C1=C\c1ccc([N+](=O)[O-])cc1 (centres undefined),IC50,[22],350 nM
same,IC50,[23],1600 nM
O=C1/C(=C/c2ccc(O)c(O)c2)COC/C1=C\c1ccc(O)c(O)c1,IC50,[42],1450 nM
same,IC50,[43],1450 nM
same,IC50,[44],1450 nM
same,IC50,[45],1450 nM
O=C1/C(=C/c2ccccn2)CCC/C1=C\c1ccccn1,inhibition at 3 ug/ml,[46],90.1%
same,inhibition at 6 ug/ml,[47],96%
COc1cc(/C=C/C(=O)/C=C/c2ccc(O)c(OC)c2)ccc1O,IC50,[48],3280 nM
same,IC50,[49],400 nM
same,IC50,[50],7320 nM
same,EC50,[51],1030 nM
same,IC50,[52],3700 nM
same,IC50,[53],5980 nM
same,EC50,[54],1030 nM
same,IC50,[55],3670 nM
O=C(/C=C/c1ccccc1F)/C=C/c1ccccc1F,GI50,[56],6100 nM
same,GI50,[57],6100 nM
same,GI50,[58],1000 nM
same,GI50,[59],17000 nM
same,GI50,[60],6100 nM
same,GI50,[61],11300 nM
same,GI50,[62],2300 nM
CC1(C)C=C(CN2C/C(=C\c3ccc(F)cc3)C(=O)/C(=C/c3ccc(F)cc3)C2)C(C)(C)N1O,viability at 10 µM,[63],20%
